Columns and labels:
[1] = tested on: MDA-MB-231 breast cancer cells co-injected with Cav-1-deficient stromal fibroblasts; experiment: Two-component xenograft: nude mice co-injected with MDA-MB-231 cells and Cav-1-deficient stromal fibroblasts, treated with glycolysis inhibitors; assay type: in vivo; details: given individually, 200 mg/kg; mice co-injected with Cav-1-deficient stromal fibroblasts and MDA-MB-231 cells
Experimental: Mice co-injected with Cav-1-deficient stromal fibroblasts and MDA-MB-231 breast cancer cells were treated with glycolysis inhibitors. The efficacy of two well-established glycolysis inhibitors, namely 2-DG (2-deoxy-D-glucose) and DCA (dichloro-acetate), individually or in combination were tested.
To provide additional experimental validation for the idea that an absence of stromal Cav-1 promotes breast cancer tumor growth and angiogenesis, a 2-component cell-system using xenografts in immuno-deficient female nude mice was developed. Briefly, the flanks of nude mice were injected with a mixture of 1) MDA-MB-231 cells (a highly aggressive human breast cancer cell line; 1.0×10^−6 cells) and 2) stromal fibroblasts, derived from either WT or Cav-1 (−/−) null mice (0.3×10^−6 cells). After 3 weeks, nude mice were sacrificed and breast cancer-derived tumors were subjected to analysis for growth (tumor weight and volume measurements) and immuno-histochemistry with markers of angiogenesis, such as CD31 (a.k.a, PECAM1).
In this two-component system, nude mice are co-injected with i) human breast cancer cells (MDA-MB-231), and ii) stromal fibroblasts (WT versus Cav-1 (−/−) deficient).

[2] = tested on: PD-ECGF/TP transfected cells; details: Haraguchi (1993); cited from earlier work
neovascularization = details: Oikawa (1988); cited from earlier work
[3] = tested on: invasive carcinomas of the breast; experiment: Breast cancer tissue microarray cohort: progression-free survival by treatment and stromal Cav-1; assay type: in vivo, human
Experimental: Breast tissues for tissue microarray construction were obtained from the Surgical Pathology tiles at the University of Michigan with institutional Review Board (IRB) approval. The TMA contained tissues derived from 154 largely consecutive patients with invasive carcinomas of the breast, with follow-up information treated at the University of Michigan from 1987-1991. Clinical and pathological variables were determined following well-established criteria. All invasive carcinomas were graded according to the method described by Elston and Ellis 17; Lymphovascular Invasion (LVI) was classified as either present or absent. The tissue microarrays were constructed, as previously described, using a tissue arrayer (Beecher Instruments, Silver Spring, Md.). Three tissue cores (0.6 mm diameter) were sampled from each block to account for tumor and tissue heterogeneity and transferred to the recipient block. Only cases with two or three cores containing tumor stromal cells were considered for statistical analysis in order to address possible heterogeneity of the staining in various tumor portions. Clinical and treatment information was extracted by chart review.
Our study population consists of 154 women diagnosed with breast cancer, with a median age of 59.5 years (range 28-96 years). 85% of the women were white. The median follow-up time for all survivors was 8.4 years (>30 days-18.5 years). […] The median time to recurrence or death from any cause was 7.1 years.
Statistical Analysis. For each patient, the date of breast cancer diagnosis, date of last follow-up, vital status at last follow-up, causes of death (breast cancer or other), and breast cancer recurrence, were recorded. Stromal caveolin was scored for each tissue sample based on 3 cores taken from the sample and given a numeric score of 0, 1 or 2, depending on the degree of stromal Cav-1 staining. The median of the three numeric scores was taken to be the stromal Cav-1 score for the sample. In the event that only two of the cores were scorable, and the median score was fractional, it was rounded upward to reflect the presence of stromal Cav-1. […]
Our primary outcome of interest in this study is progression-free survival (PFS) from time of diagnosis to the presence of metastasis, death, or last visit. PFS is evaluated using Kaplan-Meier estimation, and comparison of stratified survival curves was done using log-rank tests. […] Associations between the presence of stromal Cav-1 and other factors, including age, race, tumor grade, tumor size, lymph node status, histological subtype, estrogen receptor (ER), progesterone receptor (PR) and HER2, and presence of recurrent disease, were evaluated using Fisher's exact and Kruskal-Wallis tests, depending on the discrete or continuous nature of the other factors.

Cav-1 = experiment: Co-culture of MCF-7 cells with normal human fibroblasts: Cav-1 down-regulation in fibroblasts; assay type: cell-based; details: within 5 days of co-culture
From the text: Using this system, it was observed that within 5 days of co-culture MCF-7 cells down-regulate the expression of Cav-1 in adjacent stromal fibroblasts. This occurs via the degradation of Cav-1 in lysosomal structures, and can be inhibited by chloroquine, an anti-lysomal agent. Most importantly, MCF-7 cells induce oxidative stress in the adjacent fibroblasts via the over-production of reactive oxygen species (ROS). ROS, in turn, is known to stabilize and activate certain transcription factors, such as NFkB and HIF. NFkB- and HIF- are the master regulators of “inflammation” and “hypoxia/aerobic glycolysis” in the tumor microenvironment. Thus, in order to detect the activation of NFkB and HIF only in the fibroblast cell population, two different fibroblast cell lines engineered to express either a NFkB-luciferase or HIF-luciferase transcriptional reporter were used. […] As such, NFkB is activated first, while HIF is activated on day 4 and day 5 of coculture, coicindent with Cav-1 down-regulation. Thus, cancer cells induce the Warburg effect in adjacent stromal fibroblasts via the activation of NFkB and HIF-target genes, leading to inflammation and aerobic glycolysis. These findings provide a mechanistic basis for the “Reverse Warburg Effect”, and a new high-throughput drug-screening assay for the identification of novel compounds that block the “Reverse Warburg Effect”.

[4] = Tamoxifen-treated patients, stromal Cav-1 absent

O=CC[C@@H](O)[C@H](O)[C@H](O)CO [2-DG, 2-deoxy-D-glucose]
effect on tumor growth [1]: no effect on tumor growth

C[C@H]1O[C@@H](n2cc(F)c(=O)[nH]c2=O)[C@H](O)[C@@H]1O [5′DFUR, 5′-deoxy-5-fluorouridine]
antitumor effect in PD-ECGF/TP transfected cells compared with untransfected wild-type cells [2]: dramatic enhancement of antitumor effect

CC(=O)O[C@]1(C(C)=O)CC[C@H]2[C@@H]3C[C@H](C)C4=CC(=O)CC[C@]4(C)[C@H]3CC[C@@]21C [MPA, medroxyprogesterone acetate]
neovascularization in the rabbit corneal assay (neovascularization): potently inhibited neovascularization

CC/C(=C(\c1ccccc1)c1ccc(OCCN(C)C)cc1)c1ccccc1 [Tamoxifen]
Hazard ratio, Cox regression of Progression-Free Survival (PFS) ([3]; Tamoxifen use Yes vs No (ref), adjusted for T stage, N stage, stromal Cav-1, 101 observations): 0.621
Median Progression-Free Survival (PFS) [3, 4]: 3.55 years
Percent of Patients Alive with No Recurrence, 5-Year PFS [3, 4]: 28.6%
Percent of Patients Alive with No Recurrence, 5-Year PFS ([3]; Tamoxifen-treated patients, stromal Cav-1 present): 90.2%

CCN(CC)CCCC(C)Nc1ccnc2cc(Cl)ccc12 (centres unmarked) [chloroquine]
degradation of Cav-1 in lysosomal structures of fibroblasts co-cultured with MCF-7 cells (Cav-1): inhibited

— patent US20120039805A1, “Therapeutics And Methods For Treating Neoplastic Diseases Comprising Determining The Level Of Caveolin-1 And/Or Caveolin-2 In A Stromal Cell Sample” (PANGEA BIOSCIENCES, INC., priority 2009, published 2012)
